Experiment [1] has as its system polycystin-2 channels. In words: Inside-out cilia patch of pIMCD cells, calcium opening of polycystin-2 channels. In kind it is cell-based, mouse. To be noted: Pkd2+/del-Z mice; read-out: EC50, potency of calcium opening polycystin-2 channels. Here is the method:
(§1) Cell culture of primary inner medullary collecting duct cells and immortalized cell lines. Primary inner medullary collecting ducts cells (pIMCD) were isolated from WT or Pkd2^del-Z/del-Z mice co-expressing the ARL13B-EGFP cilia reporter using the previously described method (Liu et al., 2018). Briefly, inner medullae were removed from the kidney and disassociated using a Dulbecco's phosphate buffered solution (DPBS) containing 2 mg/ml collagenase A and 1 mg/ml hyaluronidase. After mechanical disassociation on ice, medullary cells were cultured in Dulbecco's modified essential medium (DMEM) supplemented with 10% fetal bovine serum (FBS) and 100 units/ml penicillin/100 μg/ml streptomycin. Cilia were patched from cells within 6 days after isolation and within one passage. HEK PKD2^Null cell lines were generated using the CRISPR/Cas9 gene editing kit available from Addgene and authenticated using PCR analysis, as previously described (Liu et al., 2018). […]
(§2) Electrophysiology. The electrophysiologist was blinded by a third party in the laboratory, where test groups were assigned a letter to conceal the genetic identity of the cells being evaluated. […] Ciliary ion currents were recorded using borosilicate glass electrodes polished to resistances of 14-23 MΩ using the cilium patch method previously described (Vien et al., 2020). Single channel currents measured in the inside-out configuration were recorded in symmetrical sodium concentrations. […] Calcium was buffered with 5 EGTA (ethylene glycol-bis(o-aminoethyl ether)-N,N,N′,N′-tetraacetic acid), 5 Na4-BAPTA (Glycine, N, N′-[1,2-ethanediylbis(oxy-2,1-phenylene)]bis[N-(carboxymethyl)]-,tetrasodium) and 0.5 EDTA […]; free calcium was calculated using Maxchilator and titration of 1 M CaCl2) solution (Bers et al., 2010); pH was adjusted to 7.3 using NaOH. […] Whole cell currents used to measure CDD were also recorded in symmetrical sodium concentration, placing the internal recording solution in the pipette electrode and the external recording solution in the bath. […]

The target of experiment [2] is T1, polycystin-2 channels (Mus musculus, UniProt O35245).
T1 construct: the mouse channel orthologue under endogenous expression in the kidney collecting duct; endogenous in cells; host or cells: primary inner medullary collecting duct (pIMCD) cells of ARL13B-EGFP mice
T1 sequence (O35245 1-966): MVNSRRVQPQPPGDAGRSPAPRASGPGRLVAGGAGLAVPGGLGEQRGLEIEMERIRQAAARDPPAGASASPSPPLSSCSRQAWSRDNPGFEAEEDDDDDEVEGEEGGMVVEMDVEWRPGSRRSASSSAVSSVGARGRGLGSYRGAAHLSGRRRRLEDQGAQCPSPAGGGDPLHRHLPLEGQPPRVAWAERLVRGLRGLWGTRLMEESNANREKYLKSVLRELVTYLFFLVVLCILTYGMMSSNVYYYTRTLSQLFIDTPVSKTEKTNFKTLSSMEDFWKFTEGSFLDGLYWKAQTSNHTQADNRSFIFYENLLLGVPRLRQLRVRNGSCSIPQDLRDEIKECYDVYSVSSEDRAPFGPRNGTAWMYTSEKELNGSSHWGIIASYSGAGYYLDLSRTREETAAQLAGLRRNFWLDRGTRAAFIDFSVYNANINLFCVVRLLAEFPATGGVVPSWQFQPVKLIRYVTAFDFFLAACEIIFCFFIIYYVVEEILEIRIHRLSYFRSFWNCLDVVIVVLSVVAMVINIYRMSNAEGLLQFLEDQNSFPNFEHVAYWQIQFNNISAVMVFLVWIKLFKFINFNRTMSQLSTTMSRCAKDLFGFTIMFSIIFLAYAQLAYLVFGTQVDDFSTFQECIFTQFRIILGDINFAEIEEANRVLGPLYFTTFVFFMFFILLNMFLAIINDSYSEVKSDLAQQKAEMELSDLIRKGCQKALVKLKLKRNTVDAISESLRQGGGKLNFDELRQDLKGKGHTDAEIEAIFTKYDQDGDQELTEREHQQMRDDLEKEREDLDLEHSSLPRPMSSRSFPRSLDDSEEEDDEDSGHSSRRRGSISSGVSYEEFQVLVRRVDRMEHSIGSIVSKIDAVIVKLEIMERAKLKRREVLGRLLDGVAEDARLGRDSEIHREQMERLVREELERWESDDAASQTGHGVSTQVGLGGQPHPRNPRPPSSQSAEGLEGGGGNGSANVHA
Described as above. Format: cell-based. To be noted: Pkd2+/+ mice; read-out: EC50, potency of calcium opening polycystin-2 channels. As to the method:
as §1, §2

What is called EC50 is the concentration that produces a half-maximal response. On to `[Ca+2]` [Ca^2+, calcium], for which the EC50 was determined as 1400 ± 400 nM in experiment [1] and 1200 ± 400 nM in experiment [2].

Values taken from patent US20210369677A1, “SMALL MOLECULE ACTIVATORS OF POLYCYSTIN-2 (PKD2) AND USES THEREOF” (Northwestern University, priority 2020, published 2021).
